This experiment deals with T1, Tyrosine-protein phosphatase non-receptor type 22 (Homo sapiens, UniProt Q9Y2R2).
T1 sequence (Q9Y2R2 whole entry): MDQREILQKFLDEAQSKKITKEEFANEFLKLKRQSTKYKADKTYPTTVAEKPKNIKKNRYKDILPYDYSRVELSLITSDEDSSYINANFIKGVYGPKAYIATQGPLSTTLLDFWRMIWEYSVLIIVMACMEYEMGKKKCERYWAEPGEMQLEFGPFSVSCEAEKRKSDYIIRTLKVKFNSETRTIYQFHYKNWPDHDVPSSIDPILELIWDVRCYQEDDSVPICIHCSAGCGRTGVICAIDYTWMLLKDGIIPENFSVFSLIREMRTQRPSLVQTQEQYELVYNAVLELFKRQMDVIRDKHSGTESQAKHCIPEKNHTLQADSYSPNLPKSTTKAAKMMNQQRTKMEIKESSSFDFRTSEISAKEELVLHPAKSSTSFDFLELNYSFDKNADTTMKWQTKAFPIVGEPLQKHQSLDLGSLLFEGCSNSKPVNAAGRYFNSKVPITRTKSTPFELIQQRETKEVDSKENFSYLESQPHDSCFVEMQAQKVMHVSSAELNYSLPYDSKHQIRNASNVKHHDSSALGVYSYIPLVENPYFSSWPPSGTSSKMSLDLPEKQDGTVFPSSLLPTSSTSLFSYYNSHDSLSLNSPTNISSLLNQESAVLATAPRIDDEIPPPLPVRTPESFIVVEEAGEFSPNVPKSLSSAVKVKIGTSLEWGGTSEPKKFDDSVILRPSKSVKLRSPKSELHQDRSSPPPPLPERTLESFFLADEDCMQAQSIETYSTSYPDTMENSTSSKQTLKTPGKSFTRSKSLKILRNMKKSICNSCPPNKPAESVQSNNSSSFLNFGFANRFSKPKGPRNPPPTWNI
As to the kind of experiment: LYP phosphatase inhibitors, primary screen, biochemical, DiFMUP fluorescence, recombinant catalytic domain, 10 µM (AID 606).
In the case of `Cc1ccc2c(c1C)NC(C(=O)O)C1CC=CC21` (stereo unspecified), the IC50 (usually the concentration at which inhibition is half-maximal) was 940 nM.

`CCn1nc(-c2ccccc2)nc2c(=O)n(C)c(=O)nc1-2` [1-Ethyl-6-methyl-3-phenyl-1H-pyrimido[5,4-e][1,2,4]triazine-5,7-dione]: the IC50 was determined as 1660 nM.

In the case of `CC(C)Cn1c(N)c(C(=O)COC(=O)c2cc(-c3ccco3)nc3ccccc23)c(=O)n(C)c1=O` [2-(2-furanyl)-4-quinolinecarboxylic acid [2-[4-amino-1-methyl-3-(2-methylpropyl)-2,6-dioxo-5-pyrimidinyl]-2-oxoethyl] ester], the 50% inhibitory concentration (IC50) turned out to be 5810 nM.

Take `CCCCC[C@H](O)C=C[C@H]1C=CC(=O)[C@@H]1C/C=C\CCCC(=O)O` [(Z)-7-[(1R,5S)-2-oxidanylidene-5-[(E,3S)-3-oxidanyloct-1-enyl]cyclopent-3-en-1-yl]hept-5-enoic acid]: the IC50 was 6690 nM.

With `O=C1C=Cc2ccccc2/C1=C/NC12CN3CCN(CN(C3)C1)C2` [MLS000071484], the IC50 is greater than 40000 nM.

As for `COc1ccc(Cn2c(C)nc3c(c2=O)c2nc4ccccc4nc2n3Cc2ccco2)cc1` [MLS000079944], the IC50 stood at 1780 nM.

The values above are taken from BindingDB's records for doi:10.7270/Q2Z899TZ (Columbia University Molecular Screening Center, 2007).
